From patent US20110245081A1, “HERBICIDE COMPOSITION FOR LAWN” (priority 2006, published 2011)
Where two headings read alike, the source gives them in different places.

What was measured:
Type in all cases: in vivo
[1] = test system: Digitaria ciliayis (Retz.) Koeler; test: Test Example 1: soil treatment by mixing, herbicidal effect; conditions: 1080 h
Procedure: (§1) On a field of Zoysia japonica sectioned to 100 cm×100 cm, seeds of Digitaria ciliayis (Retz.) Koeler, Poa annua L., Polygonum hydropiper L., Euphorbia supine Rafin, Oxalis comiculata L., Cyperus microiria were sown and covered with 0.5 cm soil. Seven days after weeds sowing, treatment was conducted with watering amount of 200 cc/m^2. The prescribed amount of test compound was sprayed with a small spray in the form of the formulation prepared according to the above-mentioned examples or a wettable powder of a single compound diluted with water.
(§2) The herbicidal effect and the degree of phytotoxicity to the lawn were studied 45 days after the agent treatment.
(§3) Herbicidal effect: 100%: complete death 0%: no effect Phytotoxicity: 100%: complete death 0%: no phytotoxicity
(§4) In the tables, ai means the effective component.

Oxalis corniculata L. [2] = test: as above; conditions: 1080 h
Procedure: as §1, §2, §3, §4

Poa annua L. [3] = test: as above; conditions: 1080 h
Procedure: as §1, §2, §3, §4

Polygonum blumei [4] = test: as above; conditions: 1080 h
Erigeron canadensis [5] = test: as above; conditions: 1080 h
Chenopodium ficifolium [6] = test: as above; conditions: 1080 h
[7] = test system: Digitaria ciliayis (Retz.) Koeler; test: Test Example 2: foliage and soil treatment by mixing, herbicidal effect; conditions: 1080 h
Procedure: as §1, §3
(§5) A test section of Zoysia matrella had been prepared in the same method as in the Test Example 1 and on the 28th day after weeds sowing a treatment was conducted with watering amount of 200 cc/m2. The prescribed amount of test compound was sprayed with a small spray in the form of the formulation prepared according to the aforementioned examples or a wettable powder of a single compound diluted with water.
(§6) The herbicidal effect and the degree of phytotoxicity to the lawn were studied 45 days after the agent treatment in the same manner as Test Example 1.

Oxalis corniculata L. [8] = test: as above; conditions: 1080 h
Procedure: as §1, §3, §5, §6

Poa annua L. [9] = test: as above; conditions: 1080 h
Procedure: as §1, §3, §5, §6

Polygonum blumei [10] = test: as above; conditions: 1080 h
Procedure: as §1, §3, §5, §6

Erigeron canadensis [11] = test: as above; conditions: 1080 h
Chenopodium ficifolium [12] = test: as above; conditions: 1080 h
Zoysia matrella [13] = conditions: soil treatment, 45 days
Zoysia matrella [14] = conditions: foliage and soil treatment, 45 days
[15] = soil treatment, 45 days, Indanofan 1000 g ai/ha
[16] = foliage and soil treatment, 45 days, Indanofan 1000 g ai/ha
[17] = soil treatment, 45 days, Oxaziclomefone 150 g ai/ha
[18] = foliage and soil treatment, 45 days, Oxaziclomefone 150 g ai/ha
[19] = soil treatment, 45 days, Asulam 1500 g ai/ha
[20] = foliage and soil treatment, 45 days, Asulam 1500 g ai/ha
[21] = soil treatment, 45 days, Fentrazamide 1500 g ai/ha
[22] = foliage and soil treatment, 45 days, Fentrazamide 1500 g ai/ha
[23] = soil treatment, 45 days, Ethoxysulfuron 125 g ai/ha
[24] = foliage and soil treatment, 45 days, Ethoxysulfuron 125 g ai/ha
[25] = read-out: Herbicidal effect Digitaria ciliayis (Retz.) Koeler
[26] = read-out: Herbicidal effect Oxalis corniculata L.
[27] = read-out: Herbicidal effect Poa annua L.
[28] = read-out: Herbicidal effect Polygonum blumei
[29] = read-out: Herbicidal effect Chenopodium ficifolium

## CCC1(CC2(c3cccc(Cl)c3)CO2)C(=O)c2ccccc2C1=O (racemic) [Indanofan, (RS)-2-[2-(3-chlorophenyl)-2,3-epoxypropyl]-2-ethylindan-1,3-dione]
[1]; [15]
  pest or weed control at 1000 g/ha: 0%
Oxalis corniculata L. [2]; [15]
  pest or weed control at 1000 g/ha: 50%
Poa annua L. [3]; [15]
  pest or weed control at 1000 g/ha: 0%
Polygonum blumei [4]; [15]
  pest or weed control at 1000 g/ha: 60%
Erigeron canadensis [5]; [15]
  pest or weed control at 1000 g/ha: 75%
Chenopodium ficifolium [6]; [15]
  pest or weed control at 1000 g/ha: 70%
[7]; [16]
  pest or weed control at 1000 g/ha: 30%
Oxalis corniculata L. [8]; [16]
  pest or weed control at 1000 g/ha: 0%
Poa annua L. [9]; [16]
  pest or weed control at 1000 g/ha: 30%
Polygonum blumei [10]; [16]
  pest or weed control at 1000 g/ha: 0%
Erigeron canadensis [11]; [16]
  pest or weed control at 1000 g/ha: 0%
Chenopodium ficifolium [12]; [16]
  pest or weed control at 1000 g/ha: 20%

## CC1=C(c2ccccc2)C(=O)N(C(C)(C)c2cc(Cl)cc(Cl)c2)CO1 [Oxaziclomefone, 3-[1-(3,5-dichlorophenyl)-1-methylethyl]-3,4-dihydro-6-methyl-5-phenyl-2H-1,3-oxazin-4-one]
[1]; [17]
  pest or weed control at 150 g/ha: 90%
Oxalis corniculata L. [2]; [17]
  pest or weed control at 150 g/ha: 0%
Poa annua L. [3]; [17]
  pest or weed control at 150 g/ha: 90%
Polygonum blumei [4]; [17]
  pest or weed control at 150 g/ha: 0%
Erigeron canadensis [5]; [17]
  pest or weed control at 150 g/ha: 0%
Chenopodium ficifolium [6]; [17]
  pest or weed control at 150 g/ha: 0%
[7]; [18]
  pest or weed control at 150 g/ha: 30%
Oxalis corniculata L. [8]; [18]
  pest or weed control at 150 g/ha: 0%
Poa annua L. [9]; [18]
  pest or weed control at 150 g/ha: 30%
Polygonum blumei [10]; [18]
  pest or weed control at 150 g/ha: 0%
Erigeron canadensis [11]; [18]
  pest or weed control at 150 g/ha: 0%
Chenopodium ficifolium [12]; [18]
  pest or weed control at 150 g/ha: 0%

## COC(=O)NS(=O)(=O)c1ccc(N)cc1 [Asulam, methyl sulfanyl carbamate]
[1]; [19]
  pest or weed control at 1500 g/ha: 20%
Oxalis corniculata L. [2]; [19]
  pest or weed control at 1500 g/ha: 0%
Poa annua L. [3]; [19]
  pest or weed control at 1500 g/ha: 20%
Polygonum blumei [4]; [19]
  pest or weed control at 1500 g/ha: 0%
Erigeron canadensis [5]; [19]
  pest or weed control at 1500 g/ha: 0%
Chenopodium ficifolium [6]; [19]
  pest or weed control at 1500 g/ha: 0%
[7]; [20]
  pest or weed control at 1500 g/ha: 40%
Oxalis corniculata L. [8]; [20]
  pest or weed control at 1500 g/ha: 60%
Poa annua L. [9]; [20]
  pest or weed control at 1500 g/ha: 30%
Polygonum blumei [10]; [20]
  pest or weed control at 1500 g/ha: 70%
Erigeron canadensis [11]; [20]
  pest or weed control at 1500 g/ha: 60%
Chenopodium ficifolium [12]; [20]
  pest or weed control at 1500 g/ha: 60%

## CCN(C(=O)n1nnn(-c2ccccc2Cl)c1=O)C1CCCCC1 [Fentrazamide, 4-(2-chlorophenyl)-N-cyclohexyl-N-ethyl-4,5-dihydro-5-oxo-1H-terazol-1-carboxamide]
[1]; [21]
  pest or weed control at 1500 g/ha: 90%
Oxalis corniculata L. [2]; [21]
  pest or weed control at 1500 g/ha: 0%
Poa annua L. [3]; [21]
  pest or weed control at 1500 g/ha: 80%
Polygonum blumei [4]; [21]
  pest or weed control at 1500 g/ha: 0%
Erigeron canadensis [5]; [21]
  pest or weed control at 1500 g/ha: 0%
Chenopodium ficifolium [6]; [21]
  pest or weed control at 1500 g/ha: 20%
Zoysia matrella [13]; Fentrazamide 1500 g ai/ha
  Zoysia matrella phytotoxicity: 0%
[7]; [22]
  pest or weed control at 1500 g/ha: 40%
Oxalis corniculata L. [8]; [22]
  pest or weed control at 1500 g/ha: 0%
Poa annua L. [9]; [22]
  pest or weed control at 1500 g/ha: 30%
Polygonum blumei [10]; [22]
  pest or weed control at 1500 g/ha: 0%
Erigeron canadensis [11]; [22]
  pest or weed control at 1500 g/ha: 0%
Chenopodium ficifolium [12]; [22]
  pest or weed control at 1500 g/ha: 0%
Zoysia matrella [14]; Fentrazamide 1500 g ai/ha
  Zoysia matrella phytotoxicity: 0%

## CCOc1ccccc1OS(=O)(=O)NC(=O)Nc1nc(OC)cc(OC)n1 [Ethoxysulfuron, 1-(4,6-dimethoxypyrimidin-2-yl)-3-(2-ethoxyphenoxysulfonyl)urea]
[1]; [23]
  pest or weed control at 125 g/ha: 0%
Oxalis corniculata L. [2]; [23]
  pest or weed control at 125 g/ha: 50%
Poa annua L. [3]; [23]
  pest or weed control at 125 g/ha: 0%
Polygonum blumei [4]; [23]
  pest or weed control at 125 g/ha: 60%
Erigeron canadensis [5]; [23]
  pest or weed control at 125 g/ha: 75%
Chenopodium ficifolium [6]; [23]
  pest or weed control at 125 g/ha: 70%
[7]; [24]
  pest or weed control at 125 g/ha: 0%
Oxalis corniculata L. [8]; [24]
  pest or weed control at 125 g/ha: 30%
Poa annua L. [9]; [24]
  pest or weed control at 125 g/ha: 0%
Polygonum blumei [10]; [24]
  pest or weed control at 125 g/ha: 40%
Erigeron canadensis [11]; [24]
  pest or weed control at 125 g/ha: 60%
Chenopodium ficifolium [12]; [24]
  pest or weed control at 125 g/ha: 50%

## CCN(CC)C(=O)n1cnc(S(=O)(=O)c2c(C)cc(C)cc2C)n1 [Cafenstrole, N,N-diethyl-3-meticylsulfonyl-1H-1,2,4-triazol-1-carboxamide]
[1]; [25]
  pest or weed control at 2000 g/ha: 0%
Oxalis corniculata L. [2]; [26]
  pest or weed control at 2000 g/ha: 50%
Poa annua L. [3]; [27]
  pest or weed control at 2000 g/ha: 0%
Polygonum blumei [4]; [28]
  pest or weed control at 2000 g/ha: 60%
Erigeron canadensis [5]; soil, read-out: Herbicidal effect Erigeron canadensis
  pest or weed control at 2000 g/ha: 75%
Chenopodium ficifolium [6]; [29]
  pest or weed control at 2000 g/ha: 70%
Zoysia matrella [13]; Cafenstrole 2000 g ai/ha
  Zoysia matrella phytotoxicity: 0%
[7]; [25]
  pest or weed control at 2000 g/ha: 40%
Oxalis corniculata L. [8]; [26]
  pest or weed control at 2000 g/ha: 0%
Poa annua L. [9]; [27]
  pest or weed control at 2000 g/ha: 30%
Polygonum blumei [10]; [28]
  pest or weed control at 2000 g/ha: 0%
Erigeron canadensis [11]; read-out: Herbicidal effect Erigeron canadensis
  pest or weed control at 2000 g/ha: 0%
Chenopodium ficifolium [12]; [29]
  pest or weed control at 2000 g/ha: 20%
Zoysia matrella [14]; Cafenstrole 2000 g ai/ha
  Zoysia matrella phytotoxicity: 0%
